Biological target: LSD-1 enzyme (Homo sapiens (Human), UniProt O60341)
Experiment: LANCE LSD1/KDM1A demethylase assay (LSD1 histone demethylase biochemical assay)
Conditions: 1 nM LSD-1 enzyme, 1 hour preincubation at 25° C., 0.4 μM Biotin-labeled Histone H3 peptide substrate
Description: LSD1 Histone Demethylase Biochemical Assay
LANCE LSD1/KDM1A demethylase assay-10 μL of 1 nM LSD-1 enzyme (ENZO BML-SE544-0050) in the assay buffer (50 mM Tris, pH 7.5, 0.01% Tween-20, 25 mM NaCl, 5 mM DTT) were preincubated for 1 hour at 25° C. with 0.8 μL compound/DMSO dotted in black 384 well polystyrene plates. […] Reactions were stopped by addition of 10 μL 1× LANCE Detection Buffer (PerkinElmer CR97-100) supplemented with 1.5 nM Eu-anti-unmodified H3K4 Antibody (PerkinElmer TRF0404), and 225 nM LANCE Ultra Streptavidin (PerkinElmer TRF102) along with 0.9 mM Tranylcypromine-HCl (Millipore 616431). After stopping the reactions plates were incubated for 30 minutes and read on a PHERAstar FS plate reader (BMG Labtech).

| SMILES | IC50 [nM] |
| --- | --- |
| CN1CCC[C@@H](COc2cc(-c3ccc(C#N)cc3)c(-c3ccc4c(c3)CC(=O)N4C)n3cncc23)C1 [Example 64, (R)-4-(5-(1-methyl-2-oxoindolin-5-yl)-8-((1-methylpiperidin-3-yl)methoxy)imidazo[1,5-a]pyridin-6-yl)benzonitrile] | ≤ 50 |
| Cc1nc2cc(-c3c(-c4ccc(C#N)cc4)cc(OC[C@@H]4CCCN(C)C4)c4cncn34)ccc2n1C [Example 153, 4-(5-(1,2-dimethyl-1H-benzimidazol-5-yl)-8-{[(3R)-1-methylpiperidin-3-yl]methoxy}imidazo[1,5-a]pyridin-6-yl)benzonitrile] | ≤ 50 |
| COc1ncc(-c2c(-c3ccc(C#N)cc3)nc(N3CCC(N(C)C)CC3)c3cncn23)cc1C#N [Example 148, 5-{6-(4-cyanophenyl)-8-[4-(dimethylamino)piperidin-1-yl]imidazo[1,5-a]pyrazin-5-yl}-2-methoxynicotinonitrile] | ≤ 50 |
| COCCN1CCC[C@@H](COc2nc(-c3ccc(C#N)cc3)c(-c3cnc4c(cnn4C)c3)n3cncc23)C1 [Example 40, 4-[8-{[(3R)-1-(2-methoxyethyl)piperidin-3-yl]methoxy}-5-(1-methyl-1H-pyrazolo[3,4-b]pyridin-5-yl)imidazo[1,5-a]pyrazin-6-yl]benzonitrile] | ≤ 50 |
| CN1CCC[C@@H](COc2cc(-c3ccc(C#N)cc3)c(-c3cnc4c(c3)oc(=O)n4C)n3cncc23)C1 [Example 57, (R)-4-(5-(3-methyl-2-oxo-2,3-dihydrooxazolo[4,5-b]pyridin-6-yl)-8-((1-methylpiperidin-3-yl)methoxy)imidazo[1,5-a]pyridin-6-yl)benzonitrile] | ≤ 50 |
| CN1CCOc2ccc(-c3c(-c4ccc(C#N)cc4)cc(OC[C@@H]4CCNC4)c4cncn34)cc21 [Example 15, 4-{5-(4-methyl-3,4-dihydro-2H-1,4-benzoxazin-6-yl)-8-[(3R)-pyrrolidin-3-ylmethoxy]imidazo[1,5-a]pyridin-6-yl}benzonitrile] | ≤ 50 |
| Cc1ncc(-c2c(-c3ccc(C#N)cc3)cc(OC[C@@H]3CCCN(C)C3)c3cncn23)cc1F [Example 127, 4-(5-(5-fluoro-6-methylpyridin-3-yl)-8-{[(3R)-1-methylpiperidin-3-yl]methoxy}imidazo[1,5-a]pyridin-6-yl)benzonitrile] | ≤ 50 |
| CN(C)C1CCN(c2nc(-c3ccc(C#N)cc3)c(-c3cc(F)c4c(c3)n(C)c(=O)n4C)n3cncc23)CC1 [Example 138, 4-(8-(4-(dimethylamino)piperidin-1-yl)-5-(7-fluoro-1,3-dimethyl-2-oxo-2,3-dihydro-1H-benzo[d]imidazol-5-yl)imidazo[1,5-a]pyrazin-6-yl)benzonitrile] | ≤ 50 |
| CCN1CCC[C@@H](COc2cc(-c3ccc(C#N)cc3)c(-c3cc(C)c(CO)c(F)c3)n3cncc23)C1 [Example 128, 4-{8-{[(3R)-1-ethylpiperidin-3-yl]methoxy}-5-[3-fluoro-4-(hydroxymethyl)-5-methylphenyl]imidazo[1,5-a]pyridin-6-yl}benzonitrile] | ≤ 50 |
| CN1CCC[C@@H](COc2cc(-c3ccc(C#N)cc3)c(-c3cnc(N4CCOCC4)c(F)c3)n3cncc23)C1 [Example 78, 4-(5-(5-fluoro-6-morpholin-4-ylpyridin-3-yl)-8-{[(3R)-1-methylpiperidin-3-yl]methoxy}imidazo[1,5-a]pyridin-6-yl)benzonitrile] | ≤ 50 |
| CCn1c(=O)oc2cc(-c3c(-c4ccc(C#N)cc4)nc(N4CCC(N(C)C)CC4)c4cncn34)ccc21 [Example 108, 4-[8-[4-(dimethylamino)piperidin-1-yl]-5-(3-ethyl-2-oxo-2,3-dihydro-1,3-benzoxazol-6-yl)imidazo[1,5-a]pyrazin-6-yl]benzonitrile] | ≤ 50 |
| Cc1ncc(-c2c(-c3ccc(C#N)cc3)nc(N3CCC(N(C)C)CC3)c3cncn23)cc1CO [Example 142, 4-{8-[4-(dimethylamino)piperidin-1-yl]-5-[5-(hydroxymethyl)-6-methylpyridin-3-yl]imidazo[1,5-a]pyrazin-6-yl}benzonitrile] | ≤ 50 |
| CCN1CCC[C@@H](COc2nc(-c3ccc(C#N)cc3)c(-c3cc4oc(=O)n(C)c4cc3F)n3cncc23)C1 [Example 111, 4-[8-{[(3R)-1-ethylpiperidin-3-yl]methoxy}-5-(5-fluoro-3-methyl-2-oxo-2,3-dihydro-1,3-benzoxazol-6-yl)imidazo[1,5-a]pyrazin-6-yl]benzonitrile] | ≤ 50 |
| Cc1nc2cc(-c3c(-c4ccc(C#N)cc4)nc(OC[C@@H]4CCCN(C)C4)c4cncn34)ccc2s1 [Example 35, 4-(5-(2-methyl-1,3-benzothiazol-5-yl)-8-{[(3R)-1-methylpiperidin-3-yl]methoxy}imidazo[1,5-a]pyrazin-6-yl)benzonitrile] | ≤ 50 |
| CN1C(=O)OCc2cc(-c3c(-c4ccc(C#N)cc4)nc(N4CCC(N(C)C)CC4)c4cncn34)ccc21 [Example 106, 4-[8-[4-(dimethylamino)piperidin-1-yl]-5-(1-methyl-2-oxo-1,4-dihydro-2H-3,1-benzoxazin-6-yl)imidazo[1,5-a]pyrazin-6-yl]benzonitrile] | ≤ 50 |
| CN1CCC[C@@H](COc2cc(-c3ccc(C#N)cc3)c(-c3ccc(C(C)(C)O)cc3)n3cncc23)C1 [Example 77, 4-(5-[4-(1-hydroxy-1-methylethyl)phenyl]-8-{[(3R)-1-methylpiperidin-3-yl]methoxy}imidazo[1,5-a]pyridin-6-yl)benzonitrile] | ≤ 50 |
| CN1CCC[C@@H](COc2nc(-c3ccc(C#N)cc3)c(-c3ccc4scnc4c3)n3cncc23)C1 [Example 34, (R)-4-(5-(benzo[d]thiazol-5-yl)-8-((1-methylpiperidin-3-yl)methoxy)imidazo[1,5-a]pyrazin-6-yl)benzonitrile] | ≤ 50 |
| CN1CCC[C@@H](COc2nc(-c3ccc(C#N)cc3)c(-c3ccc4c(cnn4C)c3)n3cncc23)C1 [Example 23, 4-(5-(1-methyl-1H-indazol-5-yl)-8-{[(3R)-1-methylpiperidin-3-yl]methoxy}imidazo[1,5-a]pyrazin-6-yl)benzonitrile] | ≤ 50 |
| Cc1cc(-c2c(-c3ccc(C#N)cc3)cc(OC[C@@H]3CCCN(C)C3)c3cncn23)ccc1CO [Example 79, 4-(5-[4-(hydroxymethyl)-3-methylphenyl]-8-{[(3R)-1-methylpiperidin-3-yl]methoxy}imidazo[1,5-a]pyridin-6-yl)benzonitrile] | ≤ 50 |
| CN1C(=O)Cc2cc(-c3c(-c4ccc(C#N)cc4)cc(OC[C@@H]4CCNC4)c4cncn34)ccc21 [Example 12, 4-{5-(1-methyl-2-oxo-2,3-dihydro-1H-indol-5-yl)-8-[(3R)-pyrrolidin-3-ylmethoxy]imidazo-[1,5-a]pyridin-6-yl}benzonitrile] | ≤ 50 |
| CN(C)C1CCN(c2nc(-c3ccc(C#N)cc3)c(-c3cnc4c(ccn4C)c3)n3cncc23)CC1 [Example 84, 4-(8-(4-(dimethylamino)piperidin-1-yl)-5-(1-methyl-1H-pyrrolo[2,3-b]pyridin-5-yl)imidazo[1,5-a]pyrazin-6-yl)benzonitrile] | ≤ 50 |
| CN(C)C1CCN(c2nc(-c3ccc(C#N)cc3)c(-c3cnn(C4CCC4)c3)n3cncc23)CC1 [Example 139, 4-{5-(1-cyclobutyl-1H-pyrazol-4-yl)-8-[4-(dimethylamino)piperidin-1-yl]imidazo[1,5-a]pyrazin-6-yl}benzonitrile] | ≤ 50 |

— patent publication US10047086B2, “Imidazopyridines and imidazopyrazines as LSD1 inhibitors” (Incyte Corporation, priority 2014, dated 2018)
